Results taken from patent US12195482B1 (Arcus Biosciences, Inc., priority 2022, dated 2025).

Columns and labels:
[1] = molecular target: T1, recombinant human MER (Homo sapiens, UniProt Q12866); assay: Biochemical potency, HTRF KinEASE-TK kinase assay; settings: 1 nM MER, 700 μM ATP
T1 construct: purchased Invitrogen
T1 sequence (Q12866 21-999): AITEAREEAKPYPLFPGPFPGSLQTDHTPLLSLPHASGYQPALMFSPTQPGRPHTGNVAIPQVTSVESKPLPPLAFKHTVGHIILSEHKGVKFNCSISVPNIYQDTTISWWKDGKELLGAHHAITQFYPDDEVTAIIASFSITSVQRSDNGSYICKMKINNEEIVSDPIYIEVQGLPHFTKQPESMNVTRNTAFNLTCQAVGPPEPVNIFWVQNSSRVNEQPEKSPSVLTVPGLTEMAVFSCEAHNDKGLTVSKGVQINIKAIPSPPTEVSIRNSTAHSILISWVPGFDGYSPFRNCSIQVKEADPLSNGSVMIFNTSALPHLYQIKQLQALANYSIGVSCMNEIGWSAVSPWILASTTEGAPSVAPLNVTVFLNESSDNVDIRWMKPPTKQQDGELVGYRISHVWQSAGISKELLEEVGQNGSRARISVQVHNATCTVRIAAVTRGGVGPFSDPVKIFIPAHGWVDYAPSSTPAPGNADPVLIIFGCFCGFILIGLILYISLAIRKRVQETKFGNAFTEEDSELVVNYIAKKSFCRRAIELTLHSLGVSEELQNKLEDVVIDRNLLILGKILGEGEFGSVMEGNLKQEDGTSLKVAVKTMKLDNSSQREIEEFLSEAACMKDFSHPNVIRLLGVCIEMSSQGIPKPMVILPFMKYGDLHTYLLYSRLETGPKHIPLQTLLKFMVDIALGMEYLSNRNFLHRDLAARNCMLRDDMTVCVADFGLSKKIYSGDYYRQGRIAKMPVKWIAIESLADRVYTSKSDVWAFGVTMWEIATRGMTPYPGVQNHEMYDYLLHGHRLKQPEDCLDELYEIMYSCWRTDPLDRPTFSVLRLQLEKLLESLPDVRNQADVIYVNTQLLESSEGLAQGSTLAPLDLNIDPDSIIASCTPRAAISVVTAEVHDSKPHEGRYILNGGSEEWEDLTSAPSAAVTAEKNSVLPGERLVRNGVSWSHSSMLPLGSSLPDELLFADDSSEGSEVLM
Outline: (§1)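 HTRF 665/620 readout after a 2 h RT kinase reaction (final 700 μM ATP, 800 nM biotinylated TK substrate, 1% DMSO, HEPES pH 7.4 buffer) gave percent activity. Final enzyme was 5 nM for AXL, 1 nM for TYRO3 or MER, each preincubated 1 h with compound.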

[2] = molecular target: T2, recombinant human TYRO3 (Homo sapiens, UniProt Q06418); assay: Biochemical potency, HTRF KinEASE-TK kinase assay; settings: 1 nM TYRO3, 700 μM ATP
T2 construct: purchased Invitrogen
T2 sequence (Q06418 41-890): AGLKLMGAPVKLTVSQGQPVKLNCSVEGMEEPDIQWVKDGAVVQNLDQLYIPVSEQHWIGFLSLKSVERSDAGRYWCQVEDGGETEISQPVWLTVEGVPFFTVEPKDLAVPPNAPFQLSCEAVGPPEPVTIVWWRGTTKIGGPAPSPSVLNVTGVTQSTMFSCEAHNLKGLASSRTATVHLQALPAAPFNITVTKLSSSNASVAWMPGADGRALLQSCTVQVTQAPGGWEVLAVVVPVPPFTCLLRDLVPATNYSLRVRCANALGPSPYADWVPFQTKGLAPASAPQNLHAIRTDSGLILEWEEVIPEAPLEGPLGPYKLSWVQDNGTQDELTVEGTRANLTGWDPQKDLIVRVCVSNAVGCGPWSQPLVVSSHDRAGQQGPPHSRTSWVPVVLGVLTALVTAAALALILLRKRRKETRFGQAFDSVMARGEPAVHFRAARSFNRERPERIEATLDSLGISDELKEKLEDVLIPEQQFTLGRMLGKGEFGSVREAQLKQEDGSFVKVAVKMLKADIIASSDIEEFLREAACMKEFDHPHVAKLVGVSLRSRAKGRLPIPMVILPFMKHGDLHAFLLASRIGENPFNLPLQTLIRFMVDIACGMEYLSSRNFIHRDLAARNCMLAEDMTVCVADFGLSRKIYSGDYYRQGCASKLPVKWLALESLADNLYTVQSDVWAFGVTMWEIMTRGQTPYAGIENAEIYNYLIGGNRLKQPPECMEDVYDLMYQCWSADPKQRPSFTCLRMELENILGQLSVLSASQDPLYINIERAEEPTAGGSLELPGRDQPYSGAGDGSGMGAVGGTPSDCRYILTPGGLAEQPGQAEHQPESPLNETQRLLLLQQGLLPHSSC
Outline: as §1

Compound	IC50 [1] [nM]	IC50 [2] [nM]
Cc1cc(C)c(-c2ccc(-c3c[nH]c4ncc(-c5ccc6c(c5)CC[C@@H](N5C7COCC5C7)CC6)cc34)cc2)nn1 [Example 80, 6-[(7S)-2-{3-[4-(4,6-Dimethylpyridazin-3-yl)phenyl]-1H-pyrrolo[2,3-b]pyridin-5-yl}-6,7,8,9-tetrahydro-5H-benzo[7]annulen-7-yl]-3-oxa-6-azabicyclo[3.1.1]heptane]	< 100	100 to 1000
C[C@@H]1CCCN1[C@@]1(C)CCc2ccc(-c3cnc4[nH]nc(-c5ccc(-c6ncco6)cc5)c4c3)cc2CC1 [Example 90, 2-(4-{5-[(7S)-7-Methyl-7-[(2R)-2-methylpyrrolidin-1-yl]-6,7,8,9-tetrahydro-5H-benzo[7]annulen-2-yl]-2H-pyrazolo[3,4-b]pyridin-3-yl}phenyl)-1,3-oxazole]	100 to 1000	100 to 1000
C[C@@H]1CCCN1[C@@]1(C)CCc2ccc(-c3cnc4[nH]nc(-c5ccc(-c6nccs6)cc5)c4c3)cc2CC1 [Example 91, 2-(4-{5-[(7S)-7-Methyl-7-[(2R)-2-methylpyrrolidin-1-yl]-6,7,8,9-tetrahydro-5H-benzo[7]annulen-2-yl]-2H-pyrazolo[3,4-b]pyridin-3-yl}phenyl)-1,3-thiazole]	100 to 1000	100 to 1000
CN(C)C(=O)c1ccccc1-c1ccc(-c2c[nH]c3ncc(-c4ccc5c(c4)CC[C@@H](N4C6COCC4C6)CC5)cc23)cc1 [Example 92, N,N-Dimethyl-4′-{5-[(7S)-7-{3-oxa-6-azabicyclo[3.1.1]heptan-6-yl}-6,7,8,9-tetrahydro-5H-benzo[7]annulen-2-yl]-1H-pyrrolo[2,3-b]pyridin-3-yl}-[1,1′-biphenyl]-2-carboxamide]	100 to 1000	< 100
CS(=O)(=O)c1ccccc1-c1ccc(-c2c[nH]c3ncc(-c4ccc5c(c4)CC[C@@H](N4C6COCC4C6)CC5)cc23)cc1 [Example 93, 6-[(7S)-2-(3-{2′-Methanesulfonyl-[1,1′-biphenyl]-4-yl}-1H-pyrrolo[2,3-b]pyridin-5-yl)-6,7,8,9-tetrahydro-5H-benzo[7]annulen-7-yl]-3-oxa-6-azabicyclo[3.1.1]heptane]	100 to 1000	100 to 1000
COc1cc(-c2c[nH]c3ncc(-c4ccc5c(c4)CC[C@@H](N4C6COCC4C6)CC5)cc23)ccc1-c1ccccn1 [Example 161, 6-[(7S)-2-{3-[3-Methoxy-4-(pyridin-2-yl)phenyl]-1H-pyrrolo[2,3-b]pyridin-5-yl}-6,7,8,9-tetrahydro-5H-benzo[7]annulen-7-yl]-3-oxa-6-azabicyclo[3.1.1]heptane]	100 to 1000	100 to 1000

The remaining lines, values ahead:

IC50 [1] [nM]	IC50 [2] [nM]	Compound
100 to 1000	100 to 1000	CC(C)(C#N)c1cccnc1-c1ccc(-c2n[nH]c3ncc(-c4ccc5c(c4)CC[C@@H](N4C6COCC4C6)CC5)cc23)cc1 [Example 85, 2-Methyl-2-[2-[4-[5-[(7S)-7-(3-oxa-6-azabicyclo[3.1.1]heptan-6-yl)-6,7,8,9-tetrahydro-5H-benzo[7]annulen-3-yl]-1H-pyrazolo[3,4-b]pyridine-3-yl]phenyl]pyridine-3-yl]propanenitrile]
100 to 1000	100 to 1000	COc1ccnc(-c2ccc(-c3c[nH]c4ncc(-c5ccc6c(c5)CC[C@@H](N5C7COCC5C7)CC6)cc34)cc2)c1C [Example 86, 6-[(7S)-3-[3-[4-(4-Methoxy-3-methylpyridin-2-yl)phenyl]-1H-pyrrolo[2,3-b]pyridin-5-yl]-6,7,8,9-tetrahydro-5H-benzo[7]annulen-7-yl]-3-oxa-6-azabicyclo[3.1.1]heptane]
100 to 1000	100 to 1000	COc1ccnc(-c2ccc(-c3n[nH]c4ncc(-c5ccc6c(c5)CC[C@@H](N5C7COCC5C7)CC6)cc34)cc2)c1C [Example 87, 6-[(7S)-3-[3-[4-(4-Methoxy-3-methylpyridin-2-yl)phenyl]-1H-pyrazolo[3,4-b]pyridin-5-yl]-6,7,8,9-tetrahydro-5H-benzo[7]annulen-7-yl]-3-oxa-6-azabicyclo[3.1.1]heptane]
100 to 1000	100 to 1000	FC(F)(F)c1cccnc1-c1ccc(-c2n[nH]c3ncc(-c4ccc5c(c4)CC[C@@H](N4C6COCC4C6)CC5)cc23)cc1 [Example 88, 6-[(7S)-3-[3-[4-[3-(Trifluoromethyl)pyridin-2-yl]phenyl]-1H-pyrazolo[3,4-b]pyridin-5-yl]-6,7,8,9-tetrahydro-5H-benzo[7]annulen-7-yl]-3-oxa-6-azabicyclo[3.1.1]heptane]
100 to 1000	100 to 1000	FC(F)c1cccnc1-c1ccc(-c2n[nH]c3ncc(-c4ccc5c(c4)CC[C@@H](N4C6COCC4C6)CC5)cc23)cc1 [Example 89, 6-[(7S)-3-[3-[4-[3-(Difluoromethyl)pyridin-2-yl]phenyl]-1H-pyrazolo[3,4-b]pyridin-5-yl]-6,7,8,9-tetrahydro-5H-benzo[7]annulen-7-yl]-3-oxa-6-azabicyclo[3.1.1]heptane]
> 1000	> 1000	c1cncc(-c2ccc(-c3n[nH]c4ncc(-c5ccc6c(c5)CC[C@@H](N5C7COCC5C7)CC6)cc34)cc2)c1 [Example 157, 6-[(7S)-2-{3-[4-(Pyridin-3-yl)phenyl]-2H-pyrazolo[3,4-b]pyridin-5-yl}-6,7,8,9-tetrahydro-5H-benzo[7]annulen-7-yl]-3-oxa-6-azabicyclo[3.1.1]heptane]
100 to 1000	100 to 1000	COc1cc(-c2n[nH]c3ncc(-c4ccc5c(c4)CC[C@@H](N4C6COCC4C6)CC5)cc23)ccc1-c1ccccn1 [Example 160, 6-[(7S)-2-{3-[3-Methoxy-4-(pyridin-2-yl)phenyl]-2H-pyrazolo[3,4-b]pyridin-5-yl}-6,7,8,9-tetrahydro-5H-benzo[7]annulen-7-yl]-3-oxa-6-azabicyclo[3.1.1]heptane]
> 1000	> 1000	COc1cccc(-c2ccc(-c3n[nH]c4ncc(-c5ccc6c(c5)CC[C@@H](N5C7COCC5C7)CC6)cc34)cc2)n1 [Example 162, 6-[(7S)-2-{3-[4-(6-Methoxypyridin-2-yl)phenyl]-2H-pyrazolo[3,4-b]pyridin-5-yl}-6,7,8,9-tetrahydro-5H-benzo[7]annulen-7-yl]-3-oxa-6-azabicyclo[3.1.1]heptane]
